For experiment [1], the system named is S180 sarcomas. It counts as in vivo, Kunming mice.
For experiment [2], the system named is human gastric cancer cell line MKN. To be noted: mouse, in vivo.
Experiment [3] relates to human liver cancer cell line QGY. To be noted: mouse, in vivo.
The test system of experiment [4] is mice colon carcinoma C26. To be noted: mouse, in vivo, 30 mg/kg.
For experiment [5], the system named is Lewis lung carcinoma. To be noted: mouse, in vivo.

Values joined by “and” are separate entries in the source; they are usually repeats but may differ in a detail not shown here. Equal entries are not always repeated. Where two headings read alike, the source gives them in different places. Marks after values point to notes of the source that are not given here.

In the case of `O=P1(N(CCCl)CCCl)NCCCO1` (centres unmarked) [cyclophosphamide], the values for the inhibition rate % in experiment [1] (15.0 mg/kg ip × 7) and in experiment [1] (30.0 mg/kg ip × 7) were 45.02*** % and 84.24*** %, respectively. Also, the “tumor weight (g) x ± SD” value came to 1.71 ± 0.25 g in experiment [1] (15.0 mg/kg ip × 7) and 0.49 ± 0.12 g in experiment [1] (30.0 mg/kg ip × 7). For the same compound, the inhibition ratio % was 88.11*** % and 89.06*** % in experiment [2]; 88.79*** % and 89.05*** % in experiment [3]; 91.02*** % and 79.12*** % in experiment [4]; 91.90*** % and 81.35*** % in experiment [4] (ip); 88.32*** % and 88.49*** % in experiment [5]. In addition, the “tumor weight x ± SD” value in experiment [2] was 0.17 ± 0.15 and 0.14 ± 0.05; in experiment [3], 0.25 ± 0.14 and 0.22 ± 0.08; in experiment [4], 0.22 ± 0.06 and 0.19 ± 0.06; in experiment [4] (ip), 0.22 ± 0.06 and 0.18 ± 0.06; in experiment [5], 0.25 ± 0.07 and 0.29 ± 0.07.
